Results as given in patent publication US20220160908A1, “CHELATORS AND METHODS OF MAKING AND USING SAME” (The University Of British Columbia, priority 2019, published 2022).
Where two headings read alike, the source gives them in different places.

Legend:
[1] = cited from earlier work
[2] = Complex formation equilibria with La(III): stability constants and pM; assay type: physicochemical
[3] = Protonation constants by combined potentiometric-spectrophotometric titrations; assay type: physicochemical; conditions: 25° C., l = […] (NaCl)
Excerpt: The basicity of different ionizable and non-ionizable protons determine the extent of the competition between the metal ion and the protons to the binding sites of the chelator during metal complexation. Therefore, protonation constants must be considered when evaluating the chelator. […] The remaining four protonation constants were not determined as these sites deprotonated at a pH below the electrode threshold. As a result but without being bound by theory, during metal complexation which preferably occurs at or near physiological pH for pharmaceutical purposes, competition from those protonation processes would be negligible.
FIGS. 4A, 4B and 4C show the absorption bands of the species involved in the protonation equilibria mentioned above at different pH, while Table 2 presents the protonation constants calculated from the experimental data using the HypSpec2014^25 and Hyperquad2013^26 programs. The speciation plots of different species of H4py4pa in FIG. 4D were calculated from the protonation constants in Table 2 with Hyss software.^27
All potentiometric titrations were carried out with a Metrohm Titrando 809 and a Metrohm Dosino 800 with a Ross combined electrode. A 20 mL and 25° C. thermostated glass cell with an inlet-outlet tube for nitrogen gas (purified through a 10% NaOH solution to exclude any CO2 prior to and during the course of the titration) was used as a titration cell. The electrode was calibrated daily in hydrogen ion concentration by direct titration of HCl with freshly prepared NaOH solution and the results were analyzed with Gran procedure^29 in order to obtain the standard potential E° and the ionic product of water pKw at 25° C. and 0.16 M NaCl as a supporting electrolyte. Solutions were titrated with carbonate-free NaOH (0.16 M) that was standardized against freshly recrystallized potassium hydrogen phthalate.
In the study of complex formation equilibria, the determination of the stability constant of [La(H4py4pa)] species was carried out by two different methods. The first method used UV-Vis spectrophotometric measurements on a set of solutions containing 1:1 metal to ligand molar ratio ([H4py4pa]=[M]^3+˜1.33×10^−4 M) and different amounts of HCl in the spectral range 200-400 nm at 25° C. and 1 cm path length. The molar absorptivities of all the protonated species of H4py4pa calculated with HypSpec2014^25 from the protonation constant experiments were included in the calculations. […] The stability constants for the complexes formed by H4edta and La^3+ were taken from literature.^31 Direct pH-potentiometric titrations of the La^3+-H4py4pa system were also carried out. Metal solution was prepared by adding the atomic absorption (AA) standard metal ion solution to a H4py4pa solution of known concentration in the 1:1 metal to ligand molar ratio for La(III). Ligand and metal concentrations were in the range of 0.6-0.8×10^−4 M. The exact amount of acid present in the atomic standard metal solutions standards was determined by Gran's method^29 titrating equimolar solutions of La(III) and Na2H2-EDTA. […] Three replicates of each titration were performed for each system. Relying on the stability constant for the species La(Hpy4pa) obtained by the two different methods, the fitting of the direct potentiometric titrations was possible and yielding the stability constants in Table 3. All the potentiometric measurements were processed using the Hyperquad2013 software^26 while the obtained spectrophotometric data were processed with the HypSpec2014^25 program. Proton dissociation constants corresponding to hydrolysis of La(III) aqueous ion included in the calculations were taken from Baes and Mesmer.^32 The overall equilibrium (formation) constants log β referred to the overall equilibria: pM+qH+rL ⇄MpHqLr (the charges are omitted), where p might also be 0 in the case of protonation equilibria and q can be negative for hydroxide species. […]

[4] = ligand-ligand potentiometric competition with EDTA at l = […] (NaCl) and 25° C.
[5] = potentiometric titrations at l = […] (NaCl) and 25° C.

O=C(O)CN1CCN(CC(=O)O)CCN(CC(=O)O)CCN(CC(=O)O)CC1 [DOTA, 1,4,7,10-tetraazacyclododecane-1,4,7,10-tetraacetic acid]
log K[La(DOTA)] ([1]; 25° C.): 24.25
pM (La^3+) ([1]; -log [M]free at [ligand]=10 μM, [M]=1 μM, pH=7.4): 19.2

O=C(O)c1cccc(CN(Cc2cccc(CN(Cc3cccc(C(=O)O)n3)Cc3cccc(C(=O)O)n3)n2)Cc2cccc(C(=O)O)n2)n1 [Compound H4py4pa]
pM (La^3+) ([2]; -log [M]free at [L] = 10 μM, [M] = 1 μM and pH = 7.4): 21.0
log K, ML + H^+ ⇌ MHL ([2]; in-batch acidic spectrophotometric competition at 25° C., not evaluated at constant l): 4.01(5)
log K, M(OH)L + H^+ ⇌ ML [2, 4]: 9.94(3)
log K, ML + H^+ ⇌ MHL [2, 4]: 3.78(4)
log K, M^3+ + L ⇌ ML [2, 4]: 20.37(2)
log K, M(OH)L + H^+ ⇌ ML [2, 5]: 9.96(4)
log K, M^3+ + L ⇌ ML [2, 5]: 20.33(3)
log K, H2L^2− + H^+ ⇌ H3L^− (pK9) [3]: 4.06 (2)
log K, H3L^− + H+ ⇌ H4L (pK8) [3]: 3.58 (2)
log K, H4L + H^+ ⇌ H5L^+ (pK7) [3]: 2.71 (3)
log K, H5L^+ + H^+ ⇌ H6L^2+ (pK6) [3]: 2.55 (4)
log K, H6L^2+ + H^+ ⇌ H7L^3+ (pK5) [3]: 2.31 (4)
log K, HL^3− + H^+ ⇌ H2L^2− (pK10) [3]: 6.07 (1)
log K, L^4− + H^+ ⇌ HL^3− (pK11) [3]: 6.96 (1)
log β, H2L^2− + H^+ ⇌ H3L^− [3]: 17.09 (2)
log β, H3L^− + H+ ⇌ H4L [3]: 20.67 (2)
log β, H4L + H^+ ⇌ H5L^+ [3]: 23.38 (3)
log β, H5L^+ + H^+ ⇌ H6L^2+ [3]: 25.93 (4)
log β, H6L^2+ + H^+ ⇌ H7L^3+ [3]: 28.24 (4)
log β, HL^3− + H^+ ⇌ H2L^2− [3]: 13.03 (1)
log β, L^4− + H^+ ⇌ HL^3− [3]: 6.96 (1)

O=C(O)c1cccc(CN2CCOCCOCCN(Cc3cccc(C(=O)O)n3)CCOCCOCC2)n1 [Compound H2macropa, N,N′-bis[(6-carboxy-2-pyridil)methyl]-4,13-diaza-18-crown-6]
log K[La(macropa)] ([1]; 25° C., l=0.1 M (KCl)): 14.99
